According to patent US8080237B2, “Use of tellurium compounds for protection from ultra-violet radiation” (priority 2005, dated 2011):
Like-named read-outs stand apart in the source and are kept apart here.

How the values were obtained:
interferon (IFN) [1] = settings: humans; Nat. Immun. Cell Growth Regul. 9(3):182-90, 1990; Immunology 70(4):473-7, 1990; cited from earlier work
rats = assay: Toxicity tests (LD50) in rats; type: in vivo; settings: intravenous and intramuscular administration
IL-10 = settings: Cell Immunol. 176(2):180-5, 1997; J. Natl. Cancer Inst. 88(18):1276-84, 1996; cited from earlier work
interferon (IFN) [2] = settings: mice; J. Natl. Cancer Inst. 88(18):1276-84, 1996; cited from earlier work
[3] = test system: IL-10 gene expression in epidermal cells; assay: RT-PCR for IL-10 transcripts in epidermal cells from suction blisters after in vivo UVB irradiation of volunteers' forearms; parameters: species or system human; settings: 3% AS101 in petroleum jelly U.S.P., topical on forearm before UVB; blisters 24 h after UVB exposure; compared with UVB alone; G3PDH as control transcript
Experimental: In normal volunteers, suction blisters were induced by vacuum and heat on normal skin, or on UVB-irradiated skin of volar forearms 24 h after exposure. Single cell suspensions of epidermal cells were prepared by limited trypsinization of the blister roof. Briefly, epidermal sheets were washed in PBS (Biofluids. Roekville. MD) and floated in 0.5% trypsin (United Stares Biochemical Corp. Cleveland. OH) for 45 min al 37° C., transferred to HBSS (Biofluids) containing 0.05 DNase (Sigma Chemical Co. SI. Louis. MO) and 10% heat-inactivated pooled human AB^+ serum (Sigma Chemical Co.) and disaggregated by repeated aspirations and expulsions through a syringe. […]
UVB irradiation in vivo was performed with 4 FS20 fluorescent lamps (Sylvania. Springfield. Va.) that emit wavelengths between 280 and 320 nm with a peak at 313 nm. Light intensity was determined using an IL-770 Germicidal-Erythemal radiometer (international Light Inc. Newburyport. Me.) equipped with a sensor and a 313-nm filter. […]
The frozen pellets of epidermal cells were dissolved by repeated pipetting 800 μl of lysis bufer and transferred to RNase-free Eppendorf tubes containing 500 μg of superparamagnetic polystyrene Dynaheads Oligo(dT)25 (Dynal. Great Neck. N.Y.). […] The concentration of mRNA was measured on a Beckman DU-64 spectrophotometer employing a 5 μl Ultra microcell. […]

For `Cl[TeH]1(Cl)(Cl)OCCO1.N` [AS101, ammonium trichloro(dioxyethylene-O,O′)tellurate], the “activation of interferon (IFN)” value (interferon (IFN) [1]) is listed as “potent activator of interferon”, the “LD50 relative to the immunologically effective dose” value (rats) is listed as 500-1000 folds and the “effect on IL-10 at the m-RNA level” value (IL-10) is listed as “inhibit IL-10 at the m-RNA level”. For the same compound, the “activation of interferon (IFN)” value (interferon (IFN) [2]) was “potent activator of interferon” and the “IL-10 transcription in epidermal cells after UVB (RT-PCR, FIG. 1)” value [3] was “significant decrease of IL-10”.
